Data taken from patent publication US20240253033A1, “MICROFLUIDIC DETECTION SYSTEM WITH ADJUSTABLE FLOW CONTROL” (priority 2022, published 2024).
Values after ≈ are worked out from the molar mass of the structure shown.

Legend:
K. pneumonia [1] = assay: QolorAST minimum inhibitory concentration (MIC) test; format: cell-based, Klebsiella pneumoniae
Experimental: (§1) Acinetobacter baumannii, Enterococcus faecalis, Enterococcus faecium, Streptococcus agalactiae, Enterobacter cloacae, Klebsiella pneumoniae, Streptococcus pneumoniae, E coli MG1655, and E coli Trimethoprim resistant were streaked on LB miller agar overnight at 37° C. and resuspended in water aliquot. Next, the bacterial concentration was determined using optical density technique. Subsequently, aliquots of different concentrations were prepared for the antibiotic susceptibility testing experiments in CamHB growth media.
(§2) 5×10^5 CFU ml^−1 Oxacillin-resistant S. aureus aliquots were prepared using resazurin/oxacillin solution using different concentrations of oxacillin antibiotic (16 μg/mL, 32 μg/mL, and 64 μg/mL). 5×10^5 CFU ml^−1 Cipro.
(§3) A minimum inhibitory concentration (MIC) was performed to study the QolorAST broad applicability in detecting bacterial resistance profiles and ensuring timely and efficient antimicrobial theraby. […] The antibiotics cover major bacterial inhibition mechanisms as inhibition of protein synthesis, cell wall synthesis, and/or DNA synthesis.
(§4) QolorAST exploited two methodologies: Manual MIC (MA-MIC) and support vector machine MIC (SVM-MIC). […] The SVM-MIC was carried out with a rbf kernel that was optimized and trained to predict the color change of the preclinical images using our library of bacteria images collected under different conditions including images where color is changed, color transitioning, and no color change. The SVM successfully classified the condition's bacteria-antibiotic in the concentration range studied.

E coli = assay: Phenotypic QolorAST rapid AST (resazurin reduction); format: cell-based, Escherichia coli; details: 10^5 cfu/mL E coli, antibiotic concentrations, 0-60 min
Experimental: (§5) Resistant E. coli, Oxacillin-resistant S. aureus, and Cipro. Resistant PA respectively was used. The aliquots were incubated at 37° C. different periods starting from 0 minutes incubation till 60 minutes with a time step of 5 minutes.
(§6) Resistant PA respectively was used. The aliquots were incubated at 37° C. different periods starting from 0 minutes incubation until 60 minutes with a time step of 5 minutes.
(§7) MRSA and PA respectively.

S. pneumonia [2] = assay: Conventional broth microdilution (BMD) MIC; format: cell-based, Streptococcus pneumoniae
Experimental: (§8) For clinical MIC, bacteria were streaked on LB agar overnight and resuspended in a water aliquot. The aliquot was measured, and the bacteria concentration was adjusted to of 10^6 CFU ml^−1 in LB media. A 96 well plate with an antibiotic gradient from 128 μg/ml to 0.125 μg/ml in a 2-fold concentration dilution step was prepared with a positive control with no antibiotics. Next, the bacteria were introduced to each well of the 96 well plate for a final bacteria concentration of 5×10^5 CFU ml^−1. The well plates were cultured overnight the minimum inhibitory concentration was determined as the antibiotic concentration that didn't show any signs of bacterial growth.

S. pneumonia [3] = assay: QolorAST minimum inhibitory concentration (MIC) test; format: cell-based, Streptococcus pneumoniae
Experimental: as §1, §2, §3, §4

K. pneumonia [4] = assay: Conventional broth microdilution (BMD) MIC; format: cell-based, Klebsiella pneumoniae
Experimental: as §8

A. baumannii [5] = assay: QolorAST minimum inhibitory concentration (MIC) test; format: cell-based, Acinetobacter baumannii
Experimental: as §1, §2, §3, §4

A. baumannii [6] = assay: Conventional broth microdilution (BMD) MIC; format: cell-based, Acinetobacter baumannii
Experimental: as §8

E. cloacae [7] = assay: QolorAST minimum inhibitory concentration (MIC) test; format: cell-based, Enterobacter cloacae
Experimental: as §1, §2, §3, §4

E. cloacae [8] = assay: Conventional broth microdilution (BMD) MIC; format: cell-based, Enterobacter cloacae
Experimental: as §8

E coli mm 294 = assay: QolorAST MIC test for E coli strains spiked in urine; format: cell-based, Escherichia coli; details: E coli mm 294 spiked in urine
Experimental: To obtain spiked human samples, first human urine was centrifuged at 5000 rcf for 5 minutes to remove large particles. It was subsequently spiked with 5×10^5 CFU ml^−1 and mixed with a solution of Resazurin to a final concentration of 0.02%. No antibiotics were added for the control aliquots, 32 μg/mL Ampicillin was added for resistant aliquots and 16 μg/mL Kanamycin was added for susceptible aliquots. The aliquots were incubated at 37° C. different periods starting from 0 minutes incubation till 60 minutes with a time step of 5 minutes.
According to the Infectious Diseases Society of America (IDSA), 105 CFU ml^−1 and 102 CFU ml^−1 were spiked in-vivo in urine, serum, and nasal swab of donors to simulate urinary tract infection, wound infection, and pneumonia by MRSA, respectively. Human urine was spiked with different concentrations of E. coli (FIG. 32D). As a control the healthy human biofluids were screened as received.

MRSA [9] = assay: Conventional broth microdilution (BMD) MIC; format: cell-based, Staphylococcus aureus
Experimental: as §8

MRSA [10] = assay: QolorAST minimum inhibitory concentration (MIC) test; format: cell-based, Staphylococcus aureus
Experimental: (§9) Ampicillin-resistant E. coli strain mm294 was cultured overnight at 37° C. in Luria broth (LB) media supplemented with 100 μg/mL Ampicillin. […] Next, the bacterial concentration was determined by optical density technique using a Spectronic 21D spectrophotometer. Subsequently, aliquots of different concentrations were prepared for the antibiotic susceptibility testing experiments in LB media. Biotyper spectra (MALDI Bruker).
as §2, §3, §4

S. agalactiae [11] = assay: as above; format: cell-based, Streptococcus agalactiae
Experimental: as §1, §2, §3, §4

S. agalactiae [12] = assay: Conventional broth microdilution (BMD) MIC; format: cell-based, Streptococcus agalactiae
Experimental: as §8

serum proteins = details: human serum; cited from earlier work
MRSA [13] = assay: Phenotypic QolorAST rapid AST (resazurin reduction); format: cell-based, Staphylococcus aureus; details: 10^5 cfu/mL MRSA, antibiotic concentrations, 0-60 min
Experimental: as §5, §6, §7

PA [14] = assay: QolorAST minimum inhibitory concentration (MIC) test; format: cell-based, Pseudomonas aeruginosa
Experimental: as §9, §2, §3, §4

Pseudomonas aeruginosa = assay: Phenotypic QolorAST rapid AST (resazurin reduction); format: cell-based; details: 10^5 cfu/mL PA, antibiotic concentrations, 0-60 min
Experimental: as §5, §6, §7

PA [15] = assay: Conventional broth microdilution (BMD) MIC; format: cell-based, Pseudomonas aeruginosa
Experimental: as §8

Compound: CC1(C)S[C@@H]2[C@H](NC(=O)[C@H](N)c3ccccc3)C(=O)N2[C@H]1C(=O)O [Ampicillin]
- MA-MIC/SVM-MIC/MIC Category (K. pneumonia [1]): R/R/R
- QolorAST MIC Manual (MA-MIC) (K. pneumonia [1]): > 128 µg/mL
- QolorAST MIC SVM (SVM-MIC) (K. pneumonia [1]): 128 µg/mL
- relative susceptibility from MIC values (K. pneumonia [1]): enhanced susceptibility to ampicillin over colistin
- QolorAST colour readout over incubation (E coli): consistent color change from blue to green
- Broth Microdilution MIC (MIC) (S. pneumonia [2]): >128
- MA-MIC/SVM-MIC/MIC Category (S. pneumonia [3]): R/R/R*
- QolorAST MIC Manual (MA-MIC) (S. pneumonia [3]): > 128 µg/mL
- QolorAST MIC SVM (SVM-MIC) (S. pneumonia [3]): > 128 µg/mL
- Broth Microdilution MIC (MIC) (K. pneumonia [4]): >128
- MA-MIC/SVM-MIC/MIC Category (A. baumannii [5]): R/R/R*
- QolorAST MIC Manual (MA-MIC) (A. baumannii [5]): > 128 µg/mL
- QolorAST MIC SVM (SVM-MIC) (A. baumannii [5]): > 128 µg/mL
- MIC (A. baumannii [5]; both manually and through SVM): > 128 µg/mL
- Broth Microdilution MIC (MIC) (A. baumannii [6]): >128
- MA-MIC/SVM-MIC/MIC Category (E. cloacae [7]): R/R/R
- QolorAST MIC Manual (MA-MIC) (E. cloacae [7]): > 128 µg/mL
- QolorAST MIC SVM (SVM-MIC) (E. cloacae [7]): > 128 µg/mL
- Broth Microdilution MIC (MIC) (E. cloacae [8]): >128

Compound: NC[C@H]1O[C@H](O[C@H]2[C@H](O)[C@@H](O[C@H]3O[C@H](CO)[C@@H](O)[C@H](N)[C@H]3O)[C@H](N)C[C@@H]2N)[C@H](O)[C@@H](O)[C@@H]1O [Kanamycin]
- MIC (E coli mm 294): 8 µg/mL (≈ 16.5 µM)

Compound: Cc1onc(-c2ccccc2)c1C(=O)N[C@@H]1C(=O)N2[C@@H]1SC(C)(C)[C@@H]2C(=O)O [Oxacillin]
- Broth Microdilution MIC (MIC) (MRSA [9]): 64
- MA-MIC/SVM-MIC/MIC Category (MRSA [10]): R/R/R
- QolorAST MIC Manual (MA-MIC) (MRSA [10]): 64 µg/mL
- QolorAST MIC SVM (SVM-MIC) (MRSA [10]): 64 µg/mL
- resistance or susceptibility (MRSA [10]): resistance
- MA-MIC/SVM-MIC/MIC Category (S. agalactiae [11]): S/S/S*
- QolorAST MIC Manual (MA-MIC) (S. agalactiae [11]): 0.125 µg/mL
- QolorAST MIC SVM (SVM-MIC) (S. agalactiae [11]): 0.125 µg/mL
- resistance or susceptibility (S. agalactiae [11]): susceptible
- Broth Microdilution MIC (MIC) (S. agalactiae [12]): 0.125
- drug bounded to serum proteins (serum proteins): 93%
- QolorAST colour readout over incubation (MRSA [13]): consistent color change from blue to green

Compound: Gentamicin
- MA-MIC/SVM-MIC/MIC Category (PA [14]): S/S/S*
- MIC outcomes (PA [14]): 0.5 µg/mL
- QolorAST MIC Manual (MA-MIC) (PA [14]): 0.5 µg/mL
- QolorAST MIC SVM (SVM-MIC) (PA [14]): 0.5 µg/mL
- classification by clinical breakpoints (PA [14]): susceptible
- QolorAST colour readout over incubation (Pseudomonas aeruginosa): consistent blue color
- Broth Microdilution MIC (MIC) (PA [15]): 0.5
